Reference: ChEMBL document CHEMBL1909294, “Translating clinical findings into knowledge in drug safety evaluation--drug induced liver injury prediction system (DILIps)” (PLoS Comput Biol, 2011)

Key:
Hepatotoxicity [1] = system: Hepatotoxicity;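 as to HepSE Combined Scores: combined hepatic side effect score as listed in the training data of the Drug Induced Liver Injury Prediction System (DILIps)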;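 as to HepSE bilirubinemia: bilirubinemia hepatic side effect score drawn from the DILIps training data, a prediction system for drug-induced liver injury; call rule not given here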; as to HepSE hepatic failure: call rule not given here;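 as to HepSE jaundice: Jaundice-related hepatic side-effect score drawn from the training data of the DILIps (drug-induced liver injury prediction system); call rule not given here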; as to HepSE liver disease: call rule not given here;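 as to HepSE liver fatty: hepatic side effect score for fatty liver, taken from the DILIps training set for predicting drug-induced liver injury; call rule not given here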;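 as to HepSE liver function tests abnormal: hepatic side effect score taken from the DILIps (drug-induced liver injury prediction system) training data, here covering abnormal liver function test findings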
Hepatotoxicity [2] = system: Hepatotoxicity; remark: listed apart in the source;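 as to HepSE Combined Scores: combined hepatic side effect score as listed in the training data of the Drug Induced Liver Injury Prediction System (DILIps)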;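 as to HepSE bilirubinemia: bilirubinemia hepatic side effect score drawn from the DILIps training data, a prediction system for drug-induced liver injury; call rule not given here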; as to HepSE hepatic failure: call rule not given here;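 as to HepSE jaundice: Jaundice-related hepatic side-effect score drawn from the training data of the DILIps (drug-induced liver injury prediction system); call rule not given here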; as to HepSE liver disease: call rule not given here;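 as to HepSE liver fatty: hepatic side effect score for fatty liver, taken from the DILIps training set for predicting drug-induced liver injury; call rule not given here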;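 as to HepSE liver function tests abnormal: hepatic side effect score taken from the DILIps (drug-induced liver injury prediction system) training data, here covering abnormal liver function test findings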
Hepatotoxicity [3] = system: Hepatotoxicity; remark: listed apart in the source;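 as to HepSE Combined Scores: combined hepatic side effect score as listed in the training data of the Drug Induced Liver Injury Prediction System (DILIps)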;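 as to HepSE bilirubinemia: bilirubinemia hepatic side effect score drawn from the DILIps training data, a prediction system for drug-induced liver injury; call rule not given here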;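 as to HepSE jaundice: Jaundice-related hepatic side-effect score drawn from the training data of the DILIps (drug-induced liver injury prediction system); call rule not given here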; as to HepSE liver disease: call rule not given here;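 as to HepSE liver fatty: hepatic side effect score for fatty liver, taken from the DILIps training set for predicting drug-induced liver injury; call rule not given here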;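 as to HepSE liver function tests abnormal: hepatic side effect score taken from the DILIps (drug-induced liver injury prediction system) training data, here covering abnormal liver function test findings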
Hepatotoxicity [4] = system: Hepatotoxicity; remark: listed apart in the source;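 as to HepSE Combined Scores: combined hepatic side effect score as listed in the training data of the Drug Induced Liver Injury Prediction System (DILIps)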;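 as to HepSE bilirubinemia: bilirubinemia hepatic side effect score drawn from the DILIps training data, a prediction system for drug-induced liver injury; call rule not given here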;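 as to HepSE jaundice: Jaundice-related hepatic side-effect score drawn from the training data of the DILIps (drug-induced liver injury prediction system); call rule not given here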; as to HepSE liver disease: call rule not given here;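 as to HepSE liver fatty: hepatic side effect score for fatty liver, taken from the DILIps training set for predicting drug-induced liver injury; call rule not given here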;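 as to HepSE liver function tests abnormal: hepatic side effect score taken from the DILIps (drug-induced liver injury prediction system) training data, here covering abnormal liver function test findings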
Hepatotoxicity [5] = system: Hepatotoxicity; remark: listed apart in the source; as to HepSE liver disease: call rule not given here
Hepatotoxicity [6] = system: Hepatotoxicity; remark: listed apart in the source; as to HepSE liver disease: call rule not given here
Hepatotoxicity [7] = system: Hepatotoxicity; remark: listed apart in the source
Hepatotoxicity [8] = system: Hepatotoxicity; remark: listed apart in the source
Hepatotoxicity [9] = system: Hepatotoxicity; remark: listed apart in the source
Hepatotoxicity [10] = system: Hepatotoxicity; remark: listed apart in the source
Hepatotoxicity [11] = system: Hepatotoxicity; remark: listed apart in the source
Hepatotoxicity [12] = system: Hepatotoxicity; remark: listed apart in the source
Hepatotoxicity [13] = system: Hepatotoxicity; remark: listed apart in the source
Hepatotoxicity [14] = system: Hepatotoxicity; remark: listed apart in the source

Row | Structure (SMILES) | HepSE_liver fatty (Hepatotoxicity [1]) | HepSE_liver function tests abnormal (Hepatotoxicity [2]) | HepSE_jaundice (Hepatotoxicity [3]) | HepSE_Combined Scores (Hepatotoxicity [4]) | HepSE_bilirubinemia (Hepatotoxicity [5]) | HepSE_cholelithiasis (Hepatotoxicity [6]) | HepSE_hepatitis (Hepatotoxicity [7]) | HepSE_liver disease (Hepatotoxicity [8]) | HepSE_hepatic failure (Hepatotoxicity [9]) | HepSE_elevated liver function tests (Hepatotoxicity [10]) | HepSE_hepatomegaly (Hepatotoxicity [11]) | HepSE_cirrhosis (Hepatotoxicity [12]) | HepSE_cholecystitis (Hepatotoxicity [13]) | HepSE_hepatic necrosis (Hepatotoxicity [14]) | further results
1 | Cc1oncc1C(=O)Nc1ccc(C(F)(F)F)cc1 [LEFLUNOMIDE] | 0 | 1 | 1 | 7 | 0 | 1 | 1 | 1 | 1 | 0 | 0 | 0 | 0 | 1 | 
2 | Nc1cccc2c1CN(C1CCC(=O)NC1=O)C2=O (stereo not drawn) [LENALIDOMIDE] | 0 | 1 | 0 | 4 | 1 | 0 | 0 | 0 | 1 | 0 | 0 | 0 | 1 | 0 | 
3 | N#Cc1ccc(C(c2ccc(C#N)cc2)n2cncn2)cc1 [LETROZOLE] | 0 | 0 | 0 | 0 | 0 | 0 | 0 | 0 | 0 | 0 | 0 | 0 | 0 | 0 | 
4 | Nc1nc2c(c(=O)[nH]1)N(C=O)C(CNc1ccc(C(=O)N[C@@H](CCC(=O)O)C(=O)O)cc1)CN2 (stereo partly drawn) [LEUCOVORIN] | 0 | 0 | 0 | 0 | 0 | 0 | 0 | 0 | 0 | 0 | 0 | 0 | 0 | 0 | 
5 | CC(=O)O.CCNC(=O)[C@@H]1CCCN1C(=O)[C@H](CCCNC(=N)N)NC(=O)[C@H](CC(C)C)NC(=O)[C@@H](CC(C)C)NC(=O)[C@H](Cc1ccc(O)cc1)NC(=O)[C@H](CO)NC(=O)[C@H](Cc1c[nH]c2ccccc12)NC(=O)[C@H](Cc1c[nH]cn1)NC(=O)[C@@H]1CCC(=O)N1 [LEUPROLIDE ACETATE] | 0 | 1 | 0 | 2 | 0 | 0 | 0 | 0 | 0 | 0 | 1 | 0 | 0 | 0 | 
6 | CC(C)(C)NC[C@H](O)COc1cccc2c1CCCC2=O [LEVOBUNOLOL] | 0 | 0 | 0 | 0 | 0 | 0 | 0 | 0 | 0 | 0 | 0 | 0 | 0 | 0 | 
7 | C[C@@H]1CN([C@H]2CC[C@](C#N)(c3ccc(F)cc3)CC2)CC[C@]1(C(=O)O)c1ccccc1 [LEVOCABASTINE] | 0 | 0 | 0 | 0 | 0 | 0 | 0 | 0 | 0 | 0 | 0 | 0 | 0 | 0 | 
8 | C#C[C@]1(O)CC[C@H]2[C@@H]3CCC4=CC(=O)CC[C@@H]4[C@H]3CC[C@@]21CC [LEVONORGESTREL] |  |  |  |  |  |  |  |  |  |  |  |  |  |  | HepSE_liver fatty (Hepatotoxicity [1]; Liver): 0; HepSE_liver function tests abnormal (Hepatotoxicity [2]; Liver): 0; HepSE_jaundice (Hepatotoxicity [3]; Liver): 0; HepSE_Combined Scores (Hepatotoxicity [4]; Liver): 0; HepSE_bilirubinemia (Hepatotoxicity [5]; Liver): 0; HepSE_cholelithiasis (Hepatotoxicity [6]; Liver): 0; HepSE_hepatitis (Hepatotoxicity [7]; Liver): 0; HepSE_liver disease (Hepatotoxicity [8]; Liver): 0; HepSE_hepatic failure (Hepatotoxicity [9]; Liver): 0; HepSE_elevated liver function tests (Hepatotoxicity [10]; Liver): 0; HepSE_hepatomegaly (Hepatotoxicity [11]; Liver): 0; HepSE_cirrhosis (Hepatotoxicity [12]; Liver): 0; HepSE_cholecystitis (Hepatotoxicity [13]; Liver): 0; HepSE_hepatic necrosis (Hepatotoxicity [14]; Liver): 0
9 | N[C@@H](Cc1cc(I)c(Oc2cc(I)c(O)c(I)c2)c(I)c1)C(=O)O [LEVOTHYROXINE] | 0 | 0 | 0 | 0 | 0 | 0 | 0 | 0 | 0 | 0 | 0 | 0 | 0 | 0 | 
10 | CCC[C@@H]1C[C@@H](C(=O)N[C@@H]([C@H]2O[C@H](SC)[C@H](O)[C@@H](O)[C@H]2O)[C@@H](C)O)N(C)C1 [LINCOMYCIN] | 0 | 1 | 1 | 2 | 0 | 0 | 0 | 0 | 0 | 0 | 0 | 0 | 0 | 0 | 
11 | Cl[C@H]1[C@H](Cl)[C@@H](Cl)[C@@H](Cl)[C@H](Cl)[C@H]1Cl [LINDANE] |  |  |  |  |  |  |  |  |  |  |  |  |  |  | HepSE_liver fatty (Hepatotoxicity [1]; Liver): 0; HepSE_liver function tests abnormal (Hepatotoxicity [2]; Liver): 0; HepSE_jaundice (Hepatotoxicity [3]; Liver): 0; HepSE_Combined Scores (Hepatotoxicity [4]; Liver): 0; HepSE_bilirubinemia (Hepatotoxicity [5]; Liver): 0; HepSE_cholelithiasis (Hepatotoxicity [6]; Liver): 0; HepSE_hepatitis (Hepatotoxicity [7]; Liver): 0; HepSE_liver disease (Hepatotoxicity [8]; Liver): 0; HepSE_hepatic failure (Hepatotoxicity [9]; Liver): 0; HepSE_elevated liver function tests (Hepatotoxicity [10]; Liver): 0; HepSE_hepatomegaly (Hepatotoxicity [11]; Liver): 0; HepSE_cirrhosis (Hepatotoxicity [12]; Liver): 0; HepSE_cholecystitis (Hepatotoxicity [13]; Liver): 0; HepSE_hepatic necrosis (Hepatotoxicity [14]; Liver): 0
12 | CC(=O)NC[C@H]1CN(c2ccc(N3CCOCC3)c(F)c2)C(=O)O1 [LINEZOLID] | 0 | 1 | 1 | 2 | 0 | 0 | 0 | 0 | 0 | 0 | 0 | 0 | 0 | 0 | 
13 | N[C@@H](Cc1cc(I)c(Oc2ccc(O)c(I)c2)c(I)c1)C(=O)O [LIOTHYRONINE] | 0 | 0 | 0 | 0 | 0 | 0 | 0 | 0 | 0 | 0 | 0 | 0 | 0 | 0 | 
14 | NCCCC[C@H](N[C@@H](CCc1ccccc1)C(=O)O)C(=O)N1CCC[C@H]1C(=O)O [LISINOPRIL ANHYDROUS] | 0 | 0 | 1 | 3 | 0 | 0 | 1 | 0 | 1 | 0 | 0 | 0 | 0 | 0 | 
15 | [Li] [LITHIUM] | 0 | 0 | 0 | 0 | 0 | 0 | 0 | 0 | 0 | 0 | 0 | 0 | 0 | 0 | 
16 | N#Cc1cc(NC(=O)C(=O)O)c(Cl)c(NC(=O)C(=O)O)c1 [LODOXAMIDE] | 0 | 0 | 0 | 0 | 0 | 0 | 0 | 0 | 0 | 0 | 0 | 0 | 0 | 0 | 
17 | O=NN(CCCl)C(=O)NC1CCCCC1 [LOMUSTINE] | 0 | 0 | 0 | 0 | 0 | 0 | 0 | 0 | 0 | 0 | 0 | 0 | 0 | 0 | 
